Patent publication US6534524B1, “Indazole compounds and pharmaceutical compositions for inhibiting protein kinases, and methods for their use” (Agouron Pharmaceuticals, Inc., priority 1999, dated 2003)

Tested on: human umbilical vein endothelial cells (HUVEC)
Test: HUVEC proliferation assay (VEGF-stimulated, MTT);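 also: relative to VEGF-stimulated control minus starvation-medium baseline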
Type: cell-based
Settings: Library II, Y=S, crude reaction mixtures
Protocol: HUVEC Proliferation Assay
This assay determines the ability of a test compound to inhibit the growth factor-stimulated proliferation of human umbilical vein endothelial cells (“HUVEC”). HUVEC cells (passage 3-4, Clonetics, Corp.) were thawed into EGM2 culture medium (Clonetics Corp) in T75 flasks. Fresh EGM2 medium was added to the flasks 24 hours later. Four or five days later, cells were exposed to another culture medium (F12K medium supplemented with 10% fetal bovine serum (FBS), 60 μg/mL endothelial cell growth supplement (ECGS), and 0.1 mg/mL heparin). Exponentially-growing HUVEC cells were used in experiments thereafter. Ten to twelve thousand HUVEC cells were plated in 96-well dishes in 100 μl of rich, culture medium (described above). The cells were allowed to attach for 24 hours in this medium. The medium was then removed by aspiration and 105 μl of starvation media (F12K+1% FBS) was added to each well. After 24 hours, 15 μl of test agent dissolved in 1% DMSO in starvation medium or this vehicle alone was added into each treatment well; the final DMSO concentration was 0.1%. One hour later, 30 μl of VEGF (30 ng/mL) in starvation media was added to all wells except those containing untreated controls; the final VEGF concentration was 6 ng/mL. Cellular proliferation was quantified 72 hours later by MTT dye reduction, at which time cells were exposed for 4 hours MTT (Promega Corp.).
For screening compound library plates, one or two concentrations (one well per concentration) were employed, and the % inhibition was calculated by the following formula:
% inhibition=(control−test)÷(control−starvation)
% inhibition=(control-treated)/(control-starvation)×100

[1] = 0.5 mM (column head; text: nominal 0.5 nM)
[2] = 2 mM (column head; text: nominal 2 nM)

Row | SMILES | % inhibition of the proliferation of HUVEC [1] [%] | % inhibition of the proliferation of HUVEC [2] [%]
1 | O=C(NCCCN1CCOCC1)c1ccccc1Sc1ccc2c(/C=C/c3ccccn3)n[nH]c2c1 | 5 | 14
2 | O=C(NCC1CCCO1)c1ccccc1Sc1ccc2c(/C=C/c3ccccn3)n[nH]c2c1 (stereo not shown) | 23 | 44
3 | O=C(NCCCN1CCCC1=O)c1ccccc1Sc1ccc2c(/C=C/c3ccccn3)n[nH]c2c1 | 25 | 35
4 | CN1CCCC1CCNC(=O)c1ccccc1Sc1ccc2c(/C=C/c3ccccn3)n[nH]c2c1 (stereo not shown) | 30 | 23
5 | O=C(NCCN1CCCCC1)c1ccccc1Sc1ccc2c(/C=C/c3ccccn3)n[nH]c2c1 | 5 | 19
6 | CC1CCCCN1CCCNC(=O)c1ccccc1Sc1ccc2c(/C=C/c3ccccn3)n[nH]c2c1 (stereo not shown) | 25 | 15
7 | O=C(NC1CCN(Cc2ccccc2)CC1)c1ccccc1Sc1ccc2c(/C=C/c3ccccn3)n[nH]c2c1 | 44 | 19
8 | CN(C)CC(C)(C)CNC(=O)c1ccccc1Sc1ccc2c(/C=C/c3ccccn3)n[nH]c2c1 | 38 | 5
9 | N=C(N)CNC(=O)c1ccccc1Sc1ccc2c(/C=C/c3ccccn3)n[nH]c2c1 | 7 | −1
10 | O=C(NCCc1c[nH]cn1)c1ccccc1Sc1ccc2c(/C=C/c3ccccn3)n[nH]c2c1 | 23 | −32
11 | O=C(NCS(=O)(=O)O)c1ccccc1Sc1ccc2c(/C=C/c3ccccn3)n[nH]c2c1 | 2 | −3
12 | CN(CCCNC(=O)c1ccccc1Sc1ccc2c(/C=C/c3ccccn3)n[nH]c2c1)c1ccccc1 | 18 | 25
13 | NS(=O)(=O)c1ccc(CNC(=O)c2ccccc2Sc2ccc3c(/C=C/c4ccccn4)n[nH]c3c2)cc1 | 1 | 13
14 | O=C(NCCCN(CCO)CCO)c1ccccc1Sc1ccc2c(/C=C/c3ccccn3)n[nH]c2c1 | 4 | 4
15 | O=C(NCCc1ccncc1)c1ccccc1Sc1ccc2c(/C=C/c3ccccn3)n[nH]c2c1 | 18 | 22
16 | O=C(NO)c1ccccc1Sc1ccc2c(/C=C/c3ccccn3)n[nH]c2c1 | 7 | 25
17 | CNNC(=O)c1ccccc1Sc1ccc2c(/C=C/c3ccccn3)n[nH]c2c1 | 13 | 31
18 | COCCCNC(=O)c1ccccc1Sc1ccc2c(/C=C/c3ccccn3)n[nH]c2c1 | 26 | 31
19 | Cc1cc(NC(=O)c2ccccc2Sc2ccc3c(/C=C/c4ccccn4)n[nH]c3c2)on1 | 26 | 31
20 | Cc1cc(NC(=O)c2ccccc2Sc2ccc3c(/C=C/c4ccccn4)n[nH]c3c2)no1 | 28 | 14
21 | Nc1nc(NC(=O)c2ccccc2Sc2ccc3c(/C=C/c4ccccn4)n[nH]c3c2)n[nH]1 | −6 | 41
22 | O=C(NC1CCCCC1)c1ccccc1Sc1ccc2c(/C=C/c3ccccn3)n[nH]c2c1 | 12 | 76
23 | O=C(Nc1nncs1)c1ccccc1Sc1ccc2c(/C=C/c3ccccn3)n[nH]c2c1 | 44 | 28
24 | CC(C)CC(C)NC(=O)c1ccccc1Sc1ccc2c(/C=C/c3ccccn3)n[nH]c2c1 (stereo not shown) | 55 | 50
25 | CCCCCCNC(=O)c1ccccc1Sc1ccc2c(/C=C/c3ccccn3)n[nH]c2c1 | 21 | 90
26 | O=C(Nc1nnn[nH]1)c1ccccc1Sc1ccc2c(/C=C/c3ccccn3)n[nH]c2c1 | 21 | 64
27 | O=C(NCC1OCCO1)c1ccccc1Sc1ccc2c(/C=C/c3ccccn3)n[nH]c2c1 | 35 | 63

Row | SMILES | % inhibition of the proliferation of HUVEC [1] [%] | % inhibition of the proliferation of HUVEC [2] [%]
28 | CC(C)C(CO)NC(=O)c1ccccc1Sc1ccc2c(/C=C/c3ccccn3)n[nH]c2c1 (stereo not shown) | 21 | −5
29 | CCC(COC)NC(=O)c1ccccc1Sc1ccc2c(/C=C/c3ccccn3)n[nH]c2c1 (stereo not shown) | 1 | 65
30 | CCOCCCNC(=O)c1ccccc1Sc1ccc2c(/C=C/c3ccccn3)n[nH]c2c1 | 44 | 97
31 | CCCC(CO)NC(=O)c1ccccc1Sc1ccc2c(/C=C/c3ccccn3)n[nH]c2c1 (stereo not shown) | 44 | 40
32 | COC(CNC(=O)c1ccccc1Sc1ccc2c(/C=C/c3ccccn3)n[nH]c2c1)OC | 47 | 89
33 | CSCCCNC(=O)c1ccccc1Sc1ccc2c(/C=C/c3ccccn3)n[nH]c2c1 | 44 | 100
34 | N#CCONC(=O)c1ccccc1Sc1ccc2c(/C=C/c3ccccn3)n[nH]c2c1 | 16 | 2
35 | CS(=O)(=O)NNC(=O)c1ccccc1Sc1ccc2c(/C=C/c3ccccn3)n[nH]c2c1 | 9 | 1
36 | CCn1nccc1NC(=O)c1ccccc1Sc1ccc2c(/C=C/c3ccccn3)n[nH]c2c1 | 26 | 2
37 | Cc1cc(NC(=O)c2ccccc2Sc2ccc3c(/C=C/c4ccccn4)n[nH]c3c2)n(C)n1 | 39 | 13
38 | NC(=O)NNC(=O)c1ccccc1Sc1ccc2c(/C=C/c3ccccn3)n[nH]c2c1 | 19 | 5
39 | O=C(NCCCO)c1ccccc1Sc1ccc2c(/C=C/c3ccccn3)n[nH]c2c1 | 24 | 31
40 | Cc1noc(NC(=O)c2ccccc2Sc2ccc3c(/C=C/c4ccccn4)n[nH]c3c2)c1C | 15 | 36
41 | CC1CCCC(NC(=O)c2ccccc2Sc2ccc3c(/C=C/c4ccccn4)n[nH]c3c2)C1 (stereo not shown) | 69 | 59
42 | CC1CCC(NC(=O)c2ccccc2Sc2ccc3c(/C=C/c4ccccn4)n[nH]c3c2)CC1 (stereo not shown) | −11 | 42
43 | O=C(NNCC(F)(F)F)c1ccccc1Sc1ccc2c(/C=C/c3ccccn3)n[nH]c2c1 | 16 | 42
44 | Cc1csc(NC(=O)c2ccccc2Sc2ccc3c(/C=C/c4ccccn4)n[nH]c3c2)n1 | 15 | 95
45 | Cc1cnc(NC(=O)c2ccccc2Sc2ccc3c(/C=C/c4ccccn4)n[nH]c3c2)s1 | 20 | 92
46 | CN1CCN(NC(=O)c2ccccc2Sc2ccc3c(/C=C/c4ccccn4)n[nH]c3c2)CC1 | 19 | −1
47 | CCCCC(CC)NC(=O)c1ccccc1Sc1ccc2c(/C=C/c3ccccn3)n[nH]c2c1 (stereo not shown) | 31 | 30
48 | CCCCCC(C)NC(=O)c1ccccc1Sc1ccc2c(/C=C/c3ccccn3)n[nH]c2c1 (stereo not shown) | −1 | 14
49 | CC(C)CCC(C)NC(=O)c1ccccc1Sc1ccc2c(/C=C/c3ccccn3)n[nH]c2c1 (stereo not shown) | 6 | 44
50 | CCCC(CCC)NC(=O)c1ccccc1Sc1ccc2c(/C=C/c3ccccn3)n[nH]c2c1 | 1 | 52
51 | CC(C)C(NC(=O)c1ccccc1Sc1ccc2c(/C=C/c3ccccn3)n[nH]c2c1)C(C)C | 18 | −2
52 | O=C1CSC(NC(=O)c2ccccc2Sc2ccc3c(/C=C/c4ccccn4)n[nH]c3c2)=N1 | 9 | −9
53 | CCCCC(=O)NNC(=O)c1ccccc1Sc1ccc2c(/C=C/c3ccccn3)n[nH]c2c1 | 40 | 94
